Experimental data reported in patent publication US20250206758A1, “SUBSTITUTED BRIDGED RING INHIBITOR, PREPARATION METHOD THEREFOR AND APPLICATION THEREOF” (SUZHOU ZELGEN BIOPHARMACEUTICALS CO., LTD., priority 2022, published 2025).
Where two headings read alike, the source gives them in different places.

Key:
AsPC-1 = experiment: Cell proliferation inhibition, AsPC-1 (CellTiter-Glo 3D, 7 days); format: cell-based; details: AsPC-1, 7 days
Procedure: (§1) • (a) Resuscitating cells in T75 cell culture flask: • (b) When the cell confluence reaches 80-90%, subculturing the cells.
(§2) The diluted test compound was added to a 384-well cell culture plate with a nanoliter pipetting system, and duplicate wells were set up. An equal volume of culture medium was added to the positive control group; and an equal volume of DMSO was added to the negative control group, then centrifugation was conducted at 1000 rpm for 1 min at room temperature.
(§3) Cells were inoculated into a) 384-well culture plate, with an equal volume of cells added to the negative control group, and only an equal volume of culture medium added to the positive control group. The plate was centrifuged at 1000 rpm for 1 min at room temperature, and the final DMSO concentration of the compound was 0.5% at last. The plate was placed in a 37° C., 5% CO2 constant temperature incubator for 7 days.
(§4) 20 μL/well of CellTiter-Glo® 3D to b) was added to 384-well cell culture plate, and the plate was shook at 320 rpm for 20 min in the dark, and incubated at room temperature in the dark for 2 hrs.
(§5) The luminescence value was read using an Envision multi-functional microplate reader.
(§6) The inhibition rate (IR) of the test compound was calculated using the following formula: IR (%)=(1−(RLU compound−RLU blank control)/(RLU meidum control−RLU blank control))*100%. The inhibition rates of different concentrations of compounds were calculated in Excel, and then the inhibition curves were plotted and the related parameters (including the minimum inhibition rate, maximum inhibition rate and IC50) were calculated using GraphPad Prism software.

GP2D = experiment: Cell proliferation inhibition, GP2D (CellTiter-Glo 3D, 7 days); format: cell-based
Procedure: as §1, §2, §3, §4, §5, §6

Compound	IC50 (AsPC-1; Homo sapiens, ASPC1, 168 h)	IC50 (GP2D; 168 h)	IC50 (AsPC-1)	IC50 (GP2D)
Nc1cc(-c2ncc3c(N4C[C@H]5CC[C@@H](C4)N5)nc(OC[C@@]45CCCN4C[C@@]4(CC4(F)F)C5)nc3c2F)c(Cl)c(C(F)(F)F)c1 [Example 45, 3-(4-((1R,5S)-3,8-diazabicyclo[3.2.1]octan-3-yl)-2-(((1S,7a'S)-2,2-difluorodihydro-1′H,3′H-spiro[cyclopropan-1,2′-pyrrolizin]-7a′(5′H)-yl)methoxy)-8-fluoropyridino[4,3-d]pyrimidin-7-yl)-4-chloro-5-(trifluoromethyl)aniline]	896 nM	60 nM	–	–
Nc1cc(F)c(C(F)(F)F)c(-c2ncc3c(N4C[C@H]5CC[C@@H](C4)N5)nc(OC[C@@]45CCCN4C[C@@]4(CC4(F)F)C5)nc3c2F)c1 [Example 44, 3-(4-((1R,5S)-3,8-diazabicyclo[3.2.1]octan-3-yl)-2-(((1S,7a'S)-2,2-difluorodihydro-1′H,3′H-spiro[cyclopropan-1,2′-pyrrolizin]-7a′(5′H)-yl)methoxy)-8-fluoropyridino[4,3-d]pyrimidin-7-yl)-5-fluoro-4-(trifluoromethyl)aniline]	23.3 nM	1.6 nM	–	–
C#Cc1c(F)ccc2cc(O)cc(-c3ncc4c(N5C[C@H]6CC[C@@H](C5)N6)nc(OC[C@]56C[C@@H](F)CN5CC5(CC5)C6)nc4c3F)c12 [Example 10A, 4-(4-((1R,5S)-3,8-diazabicyclo[3.2.1]octan-3-yl)-8-fluoro-2-(((6′R,7a'S)-6′-fluorodihydro-1′H,3′H-spiro[cyclopropan-1,2′-pyrrolizin]-7a′(5′H)-yl)methoxy)pyridino[4,3-d]pyrimidin-7-yl)-5-ethynyl-6-fluoronaphthalen-2-ol]	23.5 nM	1.07 nM	–	–
C#Cc1c(F)ccc2cc(O)cc(-c3ncc4c(N5CC6CCC(C5)N6)nc(OCC56CCCN5C5(CC5)CC6)nc4c3F)c12 [Example 11, 4-(4-((1R,5S)-3,8-diazabicyclo[3.2.1]octan-3-yl)-8-fluoro-2-((tetrahydrospiro[cyclopropan-1,3′-pyrrolizin]-7a′(5′H)-yl)methoxy)pyridino[4,3d]pyrimidin-7-yl)-5-ethynyl-6-fluoronaphthalen-2-ol]	38.2 nM	3.01 nM	–	–
N#Cc1c(N)sc2cc(F)cc(-c3ncc4c(N5C[C@H]6CC[C@@H](C5)N6)nc(OC[C@@]56CCCN5C[C@@]5(CC5(F)F)C6)nc4c3F)c12 [Example 32, 4-(4-((1R,5S)-3,8-diazabicyclo[3.2.1]octan-3-yl)-2-(((1S,7a'S)-2,2-difluorodihydro-1′H,3′H-spiro[cyclopropan-1,2′-pyrrolizin]-7a′(5′H)-yl)methoxy)-8-fluoropyridino[4,3-d]pyrimidin-7-yl)-2-amino-6-fluorobenzo[b]thiophen-3-carbonitrile]	483 nM	21 nM	–	–
Fc1c(-c2c(C(F)(F)F)ccc3[nH]ncc23)ncc2c(N3CC4CCC(C3)N4)nc(OC[C@@]34CCCN3C[C@@]3(CC3(F)F)C4)nc12 [Example 33, (1S,7a'S)-7a′-(((4-((1R,5S)-3,8-diazabicyclo[3.2.1]octan-3-yl)-8-fluoro-7-(5-(trifluoromethyl)-1H-indazol-4-yl)pyridino[4,3-d]pyrimidin-2-yl)oxy)methyl)-2,2-bifluorotetrahydro-1′H,3′H-spiro[cyclopropan-1,2′-pyrrolizin]]	> 1000 nM	> 100 nM	–	–
N#Cc1c(Cl)cc(N)cc1-c1ncc2c(N3C[C@H]4CC[C@@H](C3)N4)nc(OC[C@@]34CCCN3C[C@@]3(CC3(F)F)C4)nc2c1F [Example 49, 2-(4-((1R,5S)-3,8-diazabicyclo[3.2.1]octan-3-yl)-2-(((1S,7a'S)-2,2-difluorodihydro-1′H,3′H-spiro[cyclopropan-1,2′-pyrrolizin]-7a′(5′H)-yl)methoxy)-8-fluoropyridino[4,3-d]pyrimidin-7-yl)-4-amino-6-chlorobenzonitrile]	> 1000 nM	24.4 nM	–	–
C#Cc1c(F)ccc2cc(O)cc(-c3ncc4c(N5C[C@H]6CC[C@@H](C5)N6)nc(OC[C@]56C[C@@H](F)CN5C[C@]5(CC5(F)F)C6)nc4c3F)c12 [Example 15B, 4-(4-((1R,5S)-3,8-diazabicyclo[3.2.1]octan-3-yl)-8-fluoro-2-(((1R,6′R,7a'S)-2,2,6′-trifluorodihydro-1′H,3′H-spiro[cyclopropan-1,2′-pyrrolizin]-7a′(5′H)-yl)methoxy)pyridino[4,3-d]pyrimidin-7-yl)-5-ethynyl-6-fluoronaphthalen-2-ol]	50.8 nM	7.35 nM	–	–
Nc1nc2c(-c3ncc4c(N5C[C@H]6CC[C@@H](C5)N6)nc(OC[C@@]56CCCN5C[C@@]5(CC5(F)F)C6)nc4c3F)ccc(F)c2s1 [Example 23, 4-(4-((1R,5S)-3,8-diazabicyclo[3.2.1]octan-3-yl)-2-(((1S,7a'S)-2,2-difluorodihydro-1′H,3′H-spiro[cyclopropan-1,2′-pyrrolizin]-7a′(5′H)-yl)methoxy)-8-fluoropyridino[4,3-d]pyrimidin-7-yl)-7-fluorobenzo[d]thiazol-2-amine]	> 1000 nM	> 100 nM	–	–
C#Cc1c(F)ccc2cc(O)cc(-c3ncc4c(N5C[C@H]6CC[C@@H](C5)N6)nc(OC[C@]56C[C@H](F)CN5C[C@@]5(CC5(F)F)C6)nc4c3F)c12 [Example 15E, 4-(4-((1R,5S)-3,8-diazabicyclo[3.2.1]octan-3-yl)-8-fluoro-2-(((1S,6'S,7a'S)-2,2,6′-trifluorodihydro-1′H,3′H-spiro[cyclopropan-1,2′-pyrrolizin]-7a′(5′H)-yl)methoxy)pyridino[4,3-d]pyrimidin-7-yl)-5-ethynyl-6-fluoronaphthalen-2-ol]	314 nM	32.2 nM	–	–
C#Cc1c(F)ccc2cc(O)cc(-c3ncc4c(N5C[C@H]6CC[C@@H](C5)N6)nc(OC[C@]56C[C@H](F)CN5C[C@]5(CC5(F)F)C6)nc4c3F)c12 [Example 15F, 4-(4-((1R,5S)-3,8-diazabicyclo[3.2.1]octan-3-yl)-8-fluoro-2-(((1R,6'S,7a'S)-2,2,6′-trifluorodihydro-1′H,3′H-spiro[cyclopropan-1,2′-pyrrolizin]-7a′(5′H)-yl)methoxy)pyridino[4,3-d]pyrimidin-7-yl)-5-ethynyl-6-fluoronaphthalen-2-ol]	> 1000 nM	> 100 nM	–	–
CCc1c(F)ccc2cc(O)cc(-c3ncc4c(N5CC6CCC(C5)N6)nc(OC[C@@]56CCCN5C[C@@]5(CC5(F)F)C6)nc4c3F)c12 [Example 17A]	1.07 nM	0.26 nM	–	–
N#Cc1c(-c2ncc3c(N4C[C@H]5CC[C@@H](C4)N5)nc(OC[C@@]45CCCN4C[C@@]4(CC4(F)F)C5)nc3c2F)cc(N)cc1C(F)(F)F [Example 50, 2-(4-((1R,5S)-3,8-diazabicyclo[3.2.1]octan-3-yl)-2-(((1S,7a'S)-2,2-difluorodihydro-1′H,3′H-spiro[cyclopropan-1,2′-pyrrolizin]-7a′(5′H)-yl)methoxy)-8-fluoropyridino[4,3-d]pyrimidin-7-yl)-4-amino-6-(trifluoromethyl)benzonitrile]	> 1000 nM	> 100 nM	–	–
(1S,7a'S)-7a′-(((4-(1R,5S)-3,8-diazabicyclo[3.2.1]octan-3-yl)-7-(8-ethynyl-7-fluoronaphthol-1-yl)-8-fluoropyridino[4,3-d]pyrimidin-2-yl)oxy)methyl)-2,2-difluorodihydro-1′H,3′H-spiro[cyclopropan-1,2′-pyrrolizin] [Example 21]	–	–	19.1 nM	4.92 nM
